# Reference: patent publication US10525088B2, “Lactic acid bacterial immunopotentiating activity-increasing composition and method for increasing immunopotentiating activity of lactic acid bacteria” (Kirin Holdings Kabushiki Kaisha, priority 2014, dated 2020)
# Test system: dendritic cells induced from myeloblasts
# Assay: Interferon-α production by dendritic cells induced from mouse myeloblasts (Flt-3L), cultured with JCM5805 and sample
# Type: cell-based, mice
# Conditions: 0.1 (w/v) % JCM5805 + 0.25 (w/v) % sample; myeloblast-derived dendritic cells; 24 hours
# Protocol: Medium was inoculated with 1 ml of the obtained cell suspension and the culture was incubated at 37° C., 5% CO2 in a CO2 incubator for 1 week to induce dendritic cells. […] The samples were the lactic acid bacteria only, sucrose palmitate, and Ryoto Sugar Ester […] (mainly containing sucrose palmitate) (Mitsubishi-Kagaku Foods Corporation).
substance,measurement,value
sucrose palmitate,change of interferon-α inducing activity of JCM5805 by the sample,increased
